Paper PMC4912077 (PLoS ONE, 2016)

How the values were obtained:
[1] = biological target: NET (Homo sapiens, UniProt P23975); assay: NIMH PDSP radioligand binding, NET
Protocol: (§1) Radioligands and concentrations used for additional 45 CNS receptor binding assays are listed as supporting information (S1 Table). This work was performed by the National Institute of Mental Health Psychoactive Drug Screening Program (NIMH PDSP) as described previously.[26] Briefly target compounds were dissolved in DMSO and subjected to a primary screen at 10,000 nM concentration. […] Additional experimental details are available in the NIMH PDSP assay protocol book.

[2] = biological target: Alpha2B (Homo sapiens, UniProt P18089); assay: NIMH PDSP radioligand binding, Alpha2B
Alpha2B, sequence (P18089 whole entry): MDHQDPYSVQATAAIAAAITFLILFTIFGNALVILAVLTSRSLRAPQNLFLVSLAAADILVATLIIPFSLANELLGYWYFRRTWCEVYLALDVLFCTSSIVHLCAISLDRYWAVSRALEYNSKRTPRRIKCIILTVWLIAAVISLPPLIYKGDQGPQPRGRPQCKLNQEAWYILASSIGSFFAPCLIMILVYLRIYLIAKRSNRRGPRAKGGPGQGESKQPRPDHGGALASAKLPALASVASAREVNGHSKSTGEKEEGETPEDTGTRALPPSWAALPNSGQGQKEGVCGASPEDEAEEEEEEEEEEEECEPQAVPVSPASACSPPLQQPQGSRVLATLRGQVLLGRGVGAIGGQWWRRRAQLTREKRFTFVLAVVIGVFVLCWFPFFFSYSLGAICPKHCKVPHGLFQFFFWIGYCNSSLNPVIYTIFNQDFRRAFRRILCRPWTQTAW
Protocol: as §1

[3] = biological target: M2 (Homo sapiens, UniProt P08172); assay: NIMH PDSP radioligand binding, M2
M2, sequence (P08172 whole entry): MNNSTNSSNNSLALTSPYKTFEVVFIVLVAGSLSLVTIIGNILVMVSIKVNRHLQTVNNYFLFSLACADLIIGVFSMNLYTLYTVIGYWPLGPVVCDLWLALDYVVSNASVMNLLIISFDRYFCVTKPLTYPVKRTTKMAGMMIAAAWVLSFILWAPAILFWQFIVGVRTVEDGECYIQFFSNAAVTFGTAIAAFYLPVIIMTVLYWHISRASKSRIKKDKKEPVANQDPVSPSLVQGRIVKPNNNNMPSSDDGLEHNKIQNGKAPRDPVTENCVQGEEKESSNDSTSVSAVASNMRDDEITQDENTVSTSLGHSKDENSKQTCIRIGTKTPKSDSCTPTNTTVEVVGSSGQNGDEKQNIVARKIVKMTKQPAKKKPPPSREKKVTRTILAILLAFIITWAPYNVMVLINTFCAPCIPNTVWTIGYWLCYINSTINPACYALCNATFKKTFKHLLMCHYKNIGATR

[4] = tested on: AMPA receptor; assay: AMPA receptor-mediated fEPSP in hippocampal slices (2-MXP selectivity); type: cell-based, rat
Protocol: (§2) Male Wistar rats (Crl:Wi; Charles River, UK) aged 9–10 wk were sacrificed by neck vertebral dislocation (schedule 1 method) according to the United Kingdom (Scientific Procedures) Act of 1986. […] The brain was cut parasagittally into 400 μm sections and hippocampal slices were removed, stored and placed in a submerged recording chamber at 28–30°C. Recordings of synaptic activity were made, analyzed and presented as described. A bipolar electrode was used to deliver stimuli (0.03 Hz) to the Schaffer collateral pathway to enable recording of field excitatory synaptic potentials (fEPSPs) using a glass microelectrode positioned in the stratum radiatum of area CA1. […] After 30 min of stable control responses, 1 and 10 μM solutions of the individual compounds were added to the perfusate for 3–12 h while recording the amplitude and area of the NMDAR-fEPSP on-line using WinLTP [31]. Single exponential curves were fitted to the graphs and curves extrapolated to show likely half-times and minimum plateau responses achieved with each concentration of the compounds. Raw data for all fEPSP experiments are provided as supporting information (S2, S3 and S4 Files).
To examine the specificity of DPH analogues, 2-MXP was superfused at 50 (n = 2) and 100 μM (n = 1) in the absence of AMPA and GABA receptor antagonists (Fig 3C).

[5] = tested on: NMDA receptor; assay: NMDA receptor-mediated fEPSP (NMDAR-fEPSP) in CA1 of hippocampal slices; type: cell-based, rat; details: 10 μM
Protocol: as §2

[6] = biological target: Alpha2A (Homo sapiens, UniProt P08913); assay: NIMH PDSP radioligand binding, Alpha2A
Alpha2A, sequence (P08913 whole entry): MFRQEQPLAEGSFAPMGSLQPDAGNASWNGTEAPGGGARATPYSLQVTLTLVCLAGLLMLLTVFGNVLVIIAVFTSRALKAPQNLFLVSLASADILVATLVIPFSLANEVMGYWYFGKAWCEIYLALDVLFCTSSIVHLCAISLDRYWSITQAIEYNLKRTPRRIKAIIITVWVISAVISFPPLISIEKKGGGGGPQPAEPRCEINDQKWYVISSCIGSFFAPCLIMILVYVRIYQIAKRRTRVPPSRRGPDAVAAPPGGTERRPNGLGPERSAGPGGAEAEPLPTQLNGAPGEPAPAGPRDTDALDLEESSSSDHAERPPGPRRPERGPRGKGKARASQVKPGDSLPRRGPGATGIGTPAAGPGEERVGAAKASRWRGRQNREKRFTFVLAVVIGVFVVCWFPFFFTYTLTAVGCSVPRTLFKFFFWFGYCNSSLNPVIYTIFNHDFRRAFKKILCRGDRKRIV
Protocol: as §1

NET, sequence (P23975 whole entry): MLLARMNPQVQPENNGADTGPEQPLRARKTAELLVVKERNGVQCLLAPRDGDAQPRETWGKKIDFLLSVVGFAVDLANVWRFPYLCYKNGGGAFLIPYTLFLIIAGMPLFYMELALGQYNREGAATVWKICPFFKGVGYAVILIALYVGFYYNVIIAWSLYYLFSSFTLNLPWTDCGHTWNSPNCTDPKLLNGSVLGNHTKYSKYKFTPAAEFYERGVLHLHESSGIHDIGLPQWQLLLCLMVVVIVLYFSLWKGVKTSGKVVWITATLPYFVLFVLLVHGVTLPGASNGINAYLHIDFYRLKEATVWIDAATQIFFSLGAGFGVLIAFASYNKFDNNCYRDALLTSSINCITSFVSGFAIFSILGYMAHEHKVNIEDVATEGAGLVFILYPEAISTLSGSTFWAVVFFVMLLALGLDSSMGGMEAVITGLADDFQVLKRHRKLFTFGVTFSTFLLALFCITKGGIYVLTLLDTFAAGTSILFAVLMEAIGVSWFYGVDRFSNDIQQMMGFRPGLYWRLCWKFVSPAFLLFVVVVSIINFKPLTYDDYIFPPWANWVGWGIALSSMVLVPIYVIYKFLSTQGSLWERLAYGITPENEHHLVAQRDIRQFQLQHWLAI

SMILES	Ki [1] [µM]	Ki [2] [µM]	Ki [3] [µM]	effect on AMPA receptor-mediated fEPSP ([4]; 50 and 100 μM, without AMPA and GABA receptor antagonists)	potency as antagonist of NMDAR relative to AMPA receptor responses ([4]; hippocampal slices) [times]	effect on NMDAR-fEPSP [5]	Ki [6] [µM]
c1ccc(CC(c2ccccc2)N2CCCCC2)cc1 (stereo not shown) [DPH, diphenidine]	2.81	4.38	3.7				
COc1ccccc1C(Cc1ccccc1)N1CCCCC1 (stereo not shown) [2-MXP, 2-methoxydiphenidine]				No reduction of the AMPA receptor-mediated fEPSP was seen	> 50	abolished	2
